According to the NIST ThermoML archive (doi:10.1021/je400667c):
Numbers after ± are expanded uncertainties.

Assay: mn = molality of the nth substance listed, in mol/kg
Conditions: for surface tension liquid-gas: Maximal bubble pressure; for mass density / electrical conductivity: 100 kPa, Liquid; for mass density: Vibrating tube method; for electrical conductivity: Frequency=0.003 MHz, Alternating current cell with electrodes

CCCCCCCCCCCCCCCCOCCOCCOCCOCCOCCOCCOCCOCCOCCOCCOCCOCCOCCOCCOCCOCCOCCOCCOCCOCCO + O
Conditions	mass density [kg/m3]	surface tension liquid-gas [mN/m]
298.15 K, m1 = 0.0005	995.7 ± 0.11	–
298.15 K, m1 = 0.00199	–	68.7 ± 0.4
298.15 K, m1 = 0.00251	–	66 ± 0.4
298.15 K, m1 = 0.00316	–	64.2 ± 0.4
298.15 K, m1 = 0.00398	–	63.2 ± 0.4
298.15 K, m1 = 0.00501	–	61.3 ± 0.4
298.15 K, m1 = 0.00708	–	59.4 ± 0.4
298.15 K, m1 = 0.01	–	56.9 ± 0.4
298.15 K, m1 = 0.01413	–	55.3 ± 0.4
298.15 K, m1 = 0.02239	–	53.2 ± 0.4
298.15 K, m1 = 0.02818	–	52.4 ± 0.4
298.15 K, m1 = 0.03162	–	52.1 ± 0.4
298.15 K, m1 = 0.03981	–	52.1 ± 0.4
298.15 K, m1 = 0.05	997.07 ± 0.11	–
298.15 K, m1 = 0.05012	–	51.9 ± 0.4
298.15 K, m1 = 0.0631	–	51.9 ± 0.4
303.15 K, m1 = 0.0005	995.58 ± 0.11	–
303.15 K, m1 = 0.002	–	65.5 ± 0.4
303.15 K, m1 = 0.00251	–	64 ± 0.4
303.15 K, m1 = 0.00316	–	62.5 ± 0.4
303.15 K, m1 = 0.00398	–	61 ± 0.4
303.15 K, m1 = 0.00501	–	59.5 ± 0.4
303.15 K, m1 = 0.00708	–	57.5 ± 0.4
303.15 K, m1 = 0.01	–	55.8 ± 0.4
303.15 K, m1 = 0.01413	–	53 ± 0.4
303.15 K, m1 = 0.02239	–	51 ± 0.4
303.15 K, m1 = 0.02818	–	50.8 ± 0.4
303.15 K, m1 = 0.03162	–	50.7 ± 0.4
303.15 K, m1 = 0.03981	–	50.7 ± 0.4
303.15 K, m1 = 0.05	996.92 ± 0.11	–
303.15 K, m1 = 0.05012	–	50.6 ± 0.4
303.15 K, m1 = 0.0631	–	50.6 ± 0.4
308.15 K, m1 = 0.0005	995.44 ± 0.11	–
308.15 K, m1 = 0.002	–	63.1 ± 0.4
308.15 K, m1 = 0.00251	–	62.4 ± 0.4
308.15 K, m1 = 0.00316	–	60.2 ± 0.4
308.15 K, m1 = 0.00398	–	59.1 ± 0.4
308.15 K, m1 = 0.00501	–	57.1 ± 0.4
308.15 K, m1 = 0.00708	–	55.3 ± 0.4
308.15 K, m1 = 0.01	–	53.6 ± 0.4
308.15 K, m1 = 0.01429	–	51.2 ± 0.4
308.15 K, m1 = 0.02239	–	49.4 ± 0.4
308.15 K, m1 = 0.02818	–	48.8 ± 0.4
308.15 K, m1 = 0.03162	–	48.3 ± 0.4
308.15 K, m1 = 0.03981	–	48.3 ± 0.4
308.15 K, m1 = 0.05	996.78 ± 0.11	–
308.15 K, m1 = 0.05012	–	48.3 ± 0.4
308.15 K, m1 = 0.0631	–	48.3 ± 0.4
313.15 K, m1 = 0.0005	995.3 ± 0.11	–
313.15 K, m1 = 0.002	–	61.8 ± 0.4
313.15 K, m1 = 0.00251	–	60.2 ± 0.4
313.15 K, m1 = 0.00316	–	58.3 ± 0.4
313.15 K, m1 = 0.00398	–	57.1 ± 0.4
313.15 K, m1 = 0.00501	–	55.5 ± 0.4
313.15 K, m1 = 0.00708	–	53.6 ± 0.4
313.15 K, m1 = 0.01	–	51.7 ± 0.4
313.15 K, m1 = 0.01429	–	50 ± 0.4
313.15 K, m1 = 0.02239	–	47.7 ± 0.3
313.15 K, m1 = 0.02818	–	46.8 ± 0.3
313.15 K, m1 = 0.03162	–	46.5 ± 0.3
313.15 K, m1 = 0.03981	–	46.4 ± 0.3
313.15 K, m1 = 0.05	996.64 ± 0.11	–
313.15 K, m1 = 0.05012	–	46.3 ± 0.3
313.15 K, m1 = 0.0631	–	46.3 ± 0.3

CCCCCCCCCCCCCCCC[n+]1ccccc1.[Br-] [1-hexadecylpyridinium bromide] + O
Conditions	electrical conductivity, 298.15 K [S/m]	electrical conductivity, 303.15 K [S/m]	electrical conductivity, 308.15 K [S/m]	electrical conductivity, 313.15 K [S/m]	mass density, 298.15 K [kg/m3]	mass density, 303.15 K [kg/m3]	mass density, 308.15 K [kg/m3]	mass density, 313.15 K [kg/m3]
m1 = 0.0005	–	–	–	–	996.54 ± 0.11	995.89 ± 0.11	995.18 ± 0.11	994.58 ± 0.11
m1 = 0.001	0.000196 ± 1.3e-05	0.000252 ± 1.6e-05	0.000326 ± 2.1e-05	0.000401 ± 2.6e-05	–	–	–	–
m1 = 0.0015	0.000304 ± 1.9e-05	0.000359 ± 2.3e-05	0.000436 ± 2.8e-05	0.000536 ± 3.4e-05	–	–	–	–
m1 = 0.0025	0.00044 ± 2.8e-05	0.000505 ± 3.2e-05	0.000566 ± 3.6e-05	0.000684 ± 4.4e-05	–	–	–	–
m1 = 0.004	0.000742 ± 4.7e-05	0.000807 ± 5.1e-05	0.000884 ± 5.6e-05	0.00101 ± 6.4e-05	–	–	–	–
m1 = 0.005	0.00105 ± 6.7e-05	0.0011 ± 7e-05	0.00109 ± 7e-05	0.00135 ± 8.6e-05	–	–	–	–
m1 = 0.007	0.00135 ± 8.6e-05	0.00141 ± 8.9e-05	0.00148 ± 9.4e-05	0.00156 ± 9.9e-05	–	–	–	–
m1 = 0.009	0.00174 ± 0.00011	0.0018 ± 0.00011	0.00187 ± 0.00012	0.00202 ± 0.00013	–	–	–	–
m1 = 0.01	0.00192 ± 0.00012	0.00201 ± 0.00013	0.00206 ± 0.00013	0.00236 ± 0.00015	–	–	–	–
m1 = 0.013	0.00236 ± 0.00015	0.00241 ± 0.00015	0.00247 ± 0.00016	0.00259 ± 0.00017	–	–	–	–
m1 = 0.015	0.00263 ± 0.00017	0.00271 ± 0.00017	0.00276 ± 0.00018	0.00298 ± 0.00019	–	–	–	–
m1 = 0.018	0.00313 ± 0.0002	0.0031 ± 0.0002	0.00318 ± 0.0002	0.00336 ± 0.00021	–	–	–	–
m1 = 0.02	0.00345 ± 0.00022	0.0035 ± 0.00022	0.00349 ± 0.00022	0.00384 ± 0.00024	–	–	–	–
m1 = 0.024	0.00403 ± 0.00026	0.00411 ± 0.00026	0.00416 ± 0.00026	0.00469 ± 0.0003	–	–	–	–
m1 = 0.027	0.00443 ± 0.00028	0.00451 ± 0.00029	0.00458 ± 0.00029	0.00497 ± 0.00032	–	–	–	–
m1 = 0.05	–	–	–	–	998.25 ± 0.11	997.33 ± 0.11	996.34 ± 0.11	995.46 ± 0.11

CCCCCCCCCCCCOS(=O)(=O)[O-].[Na+] [sodium dodecyl sulfate] + O
Conditions	electrical conductivity, 298.15 K [S/m]	electrical conductivity, 303.15 K [S/m]	electrical conductivity, 308.15 K [S/m]	electrical conductivity, 313.15 K [S/m]	mass density, 298.15 K [kg/m3]	mass density, 303.15 K [kg/m3]	mass density, 308.15 K [kg/m3]	mass density, 313.15 K [kg/m3]
m1 = 0.0005	–	–	–	–	994.78 ± 0.11	994.12 ± 0.11	993.69 ± 0.11	993.15 ± 0.11
m1 = 0.00086	0.000225 ± 1.4e-05	0.000289 ± 1.8e-05	0.000342 ± 2.2e-05	0.000403 ± 2.6e-05	–	–	–	–
m1 = 0.00135	0.000346 ± 2.2e-05	0.000386 ± 2.5e-05	0.000457 ± 2.9e-05	0.000515 ± 3.3e-05	–	–	–	–
m1 = 0.00161	0.000432 ± 2.8e-05	0.000497 ± 3.2e-05	0.000568 ± 3.6e-05	0.00063 ± 4e-05	–	–	–	–
m1 = 0.00172	0.000542 ± 3.4e-05	0.000598 ± 3.8e-05	0.000663 ± 4.2e-05	0.000713 ± 4.5e-05	–	–	–	–
m1 = 0.0023	0.000768 ± 4.9e-05	0.000813 ± 5.2e-05	0.00087 ± 5.5e-05	0.000946 ± 6e-05	–	–	–	–
m1 = 0.00342	0.000984 ± 6.3e-05	0.00105 ± 6.7e-05	0.00113 ± 7.2e-05	0.0012 ± 7.7e-05	–	–	–	–
m1 = 0.005	0.00144 ± 9.2e-05	0.0015 ± 9.6e-05	0.00159 ± 0.0001	0.00169 ± 0.00011	–	–	–	–
m1 = 0.00681	0.00177 ± 0.00011	0.00193 ± 0.00012	0.00189 ± 0.00012	0.00207 ± 0.00013	–	–	–	–
m1 = 0.0075	0.00203 ± 0.00013	0.00211 ± 0.00013	0.0022 ± 0.00014	0.00233 ± 0.00015	–	–	–	–
m1 = 0.0108	0.00264 ± 0.00017	0.00269 ± 0.00017	0.00279 ± 0.00018	0.00295 ± 0.00019	–	–	–	–
m1 = 0.01283	0.00293 ± 0.00019	0.00299 ± 0.00019	0.00305 ± 0.00019	0.00322 ± 0.0002	–	–	–	–
m1 = 0.01582	0.00335 ± 0.00021	0.0034 ± 0.00022	0.00353 ± 0.00022	0.00373 ± 0.00024	–	–	–	–
m1 = 0.01974	0.00392 ± 0.00025	0.00398 ± 0.00025	0.00412 ± 0.00026	0.00432 ± 0.00027	–	–	–	–
m1 = 0.02351	0.00445 ± 0.00028	0.0044 ± 0.00028	0.00455 ± 0.00029	0.00468 ± 0.0003	–	–	–	–
m1 = 0.02665	0.00483 ± 0.00031	0.00487 ± 0.00031	0.00487 ± 0.00031	0.00507 ± 0.00032	–	–	–	–
m1 = 0.05	–	–	–	–	994.74 ± 0.11	994.19 ± 0.11	993.64 ± 0.11	993.11 ± 0.11
